A short description of data set [1]: Precipitation in media for cell culture on storage. In kind it is physicochemical. As to conditions: 5.0 mmol/L in medium, stored at 4° C., after 3 days; for precipitation in the medium for cell culture: 20° C. or room temperature. On the procedure:
The following media for cell culture were prepared to compare differences in precipitation therebetween.
In 700 mL of water, 31.6 g of AGT Efficient Feed A (manufactured by Invitrogen, Catalog No. AG090231P7), 0.50 mL of polyamine solution (manufactured by Invitrogen, Catalog No. AG090232P8), 27.2 g of AGT Efficient Feed B (manufactured by Invitrogen, Catalog No. AG090230P7), 30.0 g of Hydrolysate (manufactured by DMV, Catalog No. P42474), 70.0 g of glucose (manufactured by Wako Pure Chemical Industries, Catalog No. 041-00595), and 5.0 g of L-(+)-glutamine (manufactured by Wako Pure Chemical Industries, Catalog No. 078-00525) or 7.4 g of L-alanyl-L-glutamine (manufactured by Kyowa Hakko Bio) were mixed.
After stirring for approximately 30 minutes, 7.0 mL of 5 mol/L HCl aqueous solution (manufactured by Wako Pure Chemical Industries, Catalog No. 081-05435) was added, followed by further stirring for approximately 20 minutes and pH was adjusted to 6.5. Thereafter, 50 mL of an alkaline solution containing 0.5 mol/L of NaOH (manufactured by Junsei Chemical, Catalog No. 39155-0301), 100 mmol/L of L-tyrosine disodium salt (manufactured by Sigma, Catalog No. T1145-100G), and 100 mmol/L of L-cystine dihydrochloride (manufactured by Wako Pure Chemical Industries, Catalog No. 034-05322) was added to the prepared aqueous solution of pH 6.5.
A volume of the aqueous solution was adjusted to 1 L with water, followed by stirring for approximately 20 minutes so as to prepare a medium for cell culture. In the medium for cell culture, L-tyrosine disodium salt and L-cystine dihydrochloride were substituted with the same concentration (5.0 mmol/L) of L-alanyl-L-tyrosine (manufactured by Kyowa Hakko Bio) and bis-L-alanyl-L-cysteine (manufactured by Kyowa Hakko Bio) to prepare media for cell culture, respectively. The prepared media for cell culture were stored under three conditions of at 4° C. (refrigerator, manufactured by Hoshizaki), 20° C. (e-Cooling Bucket, manufactured by Taitec), or room temperature.

For data set [2] the following is noted: H2O, 20° C.; cited from earlier work.
Data set [3] deals with antibody X-expressing CHO cells. Briefly: Fed-batch culture of CHO cells: number of living cells and survival rate. In kind it is cell-based, Chinese hamster. As to conditions: 13 days of culture. On the procedure: The following feed media for cell culture were prepared, and fed-batch culture was carried out using CHO cells for comparison.
(§1) The feed medium was composed of 31.6 g/L of AGT Efficient Feed A (manufactured by Invitrogen, Catalog No. AG090231P7), 0.50 ml/L of polyamine solution (manufactured by Invitrogen, Catalog No. AG090232P8), 27.2 g/L of AGT Efficient Feed B (manufactured by Invitrogen, Catalog No. AG090230P7), 5.0 g/L of L-(+)-glutamine (manufactured by Wako Pure Chemical Industries, Catalog No. 078-00525), 30.0 g/L of hydrolysates (manufactured by DMV, Catalog No. P42474), 70.0 g/L of glucose (manufactured by Wako Pure Chemical Industries, Catalog No. 041-00595), 5.0 mmol/L of L-alanyl-L-tyrosine (Kyowa Hakko Bio), and 5.0 mmol/L, 10 mmol/L or 16 mmol/L of bis-L-alanyl-L-cysteine (manufactured by Kyowa Hakko Bio), and prepared in the same manner as in Example 1.
(§2) In the culture using antibody X-expressing CHO cells, 4.0 mmol/L of glutamine (manufactured by Invitrogen, Catalog No. 25030)-containing EX-CELL325 (manufactured by SAFC, Catalog No. 14340C-1000mL) was used as a main culture medium. The feed medium was added to perform fed-batch culture.

The test system is the same in data set [4]. Briefly: Antibody titer in fed-batch culture of CHO cells. It counts as cell-based, Chinese hamster. As to conditions: 13 days of culture. As for the experimental part:
as §1, §2
In order to examine antibody production, antibody titer was measured at 13 days of culture in the fed-batch culture of CHO cells having an ability to produce the antibody of Example 2. In the feed medium, the […] 0.75 g/L at 5.0 mmol/L, 0.79 g/L at 10 mmol/L, and 0.78 g/L at 16 mmol/L.

The conditions of data set [5]: cited from earlier work.

Converted amounts (≈) assume the structure as drawn. Peptide text beside a SMILES is read from it.

Consider L-tyrosine disodium salt, for which, in data set [1], the “precipitation in the medium for cell culture” value is recorded as “precipitations were observed” and the “precipitation in the medium, low temperature compared with other storage conditions” value was “more precipitation was observed”.
In the case of `C[C@H](N)C(=O)N[C@@H](Cc1ccc(O)cc1)C(=O)O` [L-alanyl-L-tyrosine] (H-Ala-Tyr-OH), the “precipitation in the medium for cell culture” value in data set [1] is given as “no precipitation”.
For orientation: solubility means the dissolved amount per volume that the medium holds. Turning to `N[C@@H](CSSC[C@H](N)C(=O)O)C(=O)O` [cystine], in data set [2], the solubility is 100 µg/mL (≈ 416 µM).
Regarding `C[C@H](N)C(=O)N(C(=O)[C@H](C)N)[C@@H](CS)C(=O)O` [bis-L-alanyl-L-cysteine], the “precipitation in the medium for cell culture” value in data set [1] is “no precipitation”. The “Number of living cells” value in data set [3] (5 mmol/L in feed medium) was 28.6 10^5 cells/mL; in data set [3] (10 mmol/L in feed medium) it was 44.1 10^5 cells/mL; in data set [3] (16 mmol/L in feed medium), 58.1 10^5 cells/mL. Moreover, the Survival rate in data set [3] (5 mmol/L in feed medium) is recorded as 55.0%; in data set [3] (10 mmol/L in feed medium) it was 78.7%; in data set [3] (16 mmol/L in feed medium) it was 86.6%. Moreover, the antibody titer in data set [4] (5.0 mmol/L in feed medium) amounted to 0.75 g/L; in data set [4] (10 mmol/L in feed medium) it was 0.79 g/L; in data set [4] (16 mmol/L in feed medium) it was 0.78 g/L.
On to `Cl.Cl.N[C@@H](CSSC[C@H](N)C(=O)O)C(=O)O` [L-cystine dihydrochloride], for which, in data set [1], the “precipitation in the medium for cell culture” value is given as “precipitations were observed” and the “precipitation in the medium, low temperature compared with other storage conditions” value is reported as “more precipitation was observed”.
Consider `Cl.N[C@@H](CS)C(=O)O` [cysteine hydrochloride], for which the “stability in an aqueous solution” value in data set [5] is “low stability”.

The values are drawn from patent US20130130317A1, “METHOD FOR PRODUCING SUBSTANCE” (KYOWA HAKKO KIRIN CO., LTD, priority 2010, published 2013).
